Our source for the TGI and GI50 values is PubChem BioAssay (NCI).

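Assay format: 96-well plates, 48-hour exposure. At the GI50, growth is halved. Definition used: TGI = concentration required for complete inhibition of growth.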

Test systems include SF-539 CNS; SK-MEL-5 melanoma; NCI-H522 lung; OVCAR-4 ovarian; HCT-116 colon; U251 CNS; CAKI-1 renal; DU-145 prostate; NCI/ADR-RES ovarian.
Holding throughout (experiment): NCI tumour cell line growth inhibition, 48 h

`Cc1ccc(NC(=O)C(=O)C(C#N)c2ccccc2C)cc1C` (centres undefined): the TGI in the assay with SF-539 CNS was above 100 µM; in the assay on SK-MEL-5 melanoma it was above 100 µM; with NCI-H522 lung, above 100 µM; in the assay with OVCAR-4 ovarian, above 100 µM; with HCT-116 colon it was above 63 µM; in the assay with U251 CNS, above 100 µM. In the assay on CAKI-1 renal, this molecule displayed a TGI above 100 µM.

On to `O=C(N/C(=C\c1ccc2c(c1)OCO2)c1nc2ccccc2[nH]1)c1ccccc1`, for which the TGI with SF-539 CNS was 82.7 µM; with SK-MEL-5 melanoma it was 29.9 µM; with NCI-H522 lung, 61 µM; with OVCAR-4 ovarian it was 69.4 µM; in the assay with HCT-116 colon it was above 89 µM; in the assay on U251 CNS, above 100 µM. The same molecule displayed a TGI in the assay on CAKI-1 renal above 100 µM.

Take `COc1ccc(OC)c(NC(=O)C2=C(C)NC(C)=C(C(=O)Nc3cc(OC)ccc3OC)C2c2ccccc2)c1`: the TGI with SF-539 CNS, in the assay on SK-MEL-5 melanoma, in the assay with NCI-H522 lung, in the assay on OVCAR-4 ovarian, in the assay on HCT-116 colon and in the assay on U251 CNS was above 100 µM in each case. The same molecule displayed a TGI with CAKI-1 renal above 100 µM.

As to `CC1=C(Oc2ccccc2)C(CCC(=O)O)c2c(O)cc(Cl)c(O)c21` (centres undefined), the TGI in the assay on SF-539 CNS, in the assay on SK-MEL-5 melanoma, in the assay on NCI-H522 lung, in the assay on OVCAR-4 ovarian, with HCT-116 colon and in the assay on U251 CNS was above 100 µM each time. Besides, in the assay on CAKI-1 renal, the TGI is above 100 µM.

Regarding `Cc1ccc(C(=O)c2nnc(C(=O)c3ccc(C)cc3)nn2)cc1`, the TGI in the assay with SF-539 CNS, with SK-MEL-5 melanoma, in the assay with NCI-H522 lung, with OVCAR-4 ovarian, with HCT-116 colon and in the assay with U251 CNS was above 100 µM in each case. In the assay with CAKI-1 renal, the TGI is above 100 µM.

Turning to `CN(C)CCNc1c2c(c(NCCN(C)C)c3[nH]ccc13)C(=O)c1ccccc1C2=O`, the GI50 with DU-145 prostate is 0.587 µM; in the assay with SF-539 CNS, 1.01 µM; with SK-MEL-5 melanoma, 1.81 µM; in the assay with NCI-H522 lung, 3.3 µM; in the assay on OVCAR-4 ovarian, 1.05 µM; in the assay with HCT-116 colon, 0.281 µM. Moreover, the values for the GI50 in the assay with U251 CNS, in the assay with CAKI-1 renal and in the assay on NCI/ADR-RES ovarian were 0.507 µM, 2.56 µM and 0.887 µM, respectively. The TGI in the assay on DU-145 prostate was 3.1 µM; with SF-539 CNS, 3.8 µM; in the assay with SK-MEL-5 melanoma it was 3.88 µM; with NCI-H522 lung it was above 100 µM; in the assay with OVCAR-4 ovarian, 3.11 µM; in the assay with U251 CNS, 15.9 µM. The TGI in the assay with CAKI-1 renal turned out to be 6.72 µM.

For `CC1=Nc2ccccc2S/C1=C(/C)NNC(=O)C(N)=O`, the TGI with SF-539 CNS, in the assay on SK-MEL-5 melanoma, with NCI-H522 lung, in the assay on OVCAR-4 ovarian, in the assay on HCT-116 colon and in the assay on U251 CNS was above 100 µM in each case. The same molecule returned a TGI with CAKI-1 renal above 100 µM.

`Cc1ccc(N=Cc2ccc3c(c2)OCO3)cc1C`: the TGI in the assay on SF-539 CNS, in the assay on SK-MEL-5 melanoma, in the assay on NCI-H522 lung, in the assay on HCT-116 colon and in the assay on CAKI-1 renal was above 100 µM in each case.

Take `CCOc1ccc(NC(=O)C(=O)CC(=O)C2=C(C)Nc3ccccc3S2)cc1`: the TGI in the assay on SF-539 CNS, in the assay on SK-MEL-5 melanoma, in the assay with NCI-H522 lung, in the assay on OVCAR-4 ovarian, in the assay with HCT-116 colon and in the assay with U251 CNS was above 50 µM in each case. This molecule showed a TGI with CAKI-1 renal above 50 µM.

As for `CC1=C(C)C(=O)c2c(cc3ccccn23)C1=O`, the TGI is 37.1 µM in the assay with SF-539 CNS, 22.1 µM with SK-MEL-5 melanoma, above 100 µM with OVCAR-4 ovarian and 27.2 µM in the assay with U251 CNS.

`Cc1cc(N(CCC#N)CCC#N)ccc1N=Nc1cccc(C(=O)O)c1`: the TGI in the assay with SF-539 CNS, in the assay on SK-MEL-5 melanoma, with NCI-H522 lung, in the assay on OVCAR-4 ovarian, with U251 CNS and in the assay on CAKI-1 renal was above 100 µM each time.

As for `COc1cc(OC(C)=O)cc2c(OC(C)=O)ccc(OC(C)=O)c12`, the TGI with SK-MEL-5 melanoma, with NCI-H522 lung, in the assay on OVCAR-4 ovarian, with HCT-116 colon, in the assay with U251 CNS and in the assay with CAKI-1 renal was above 100 µM in each case.

For `COc1cc(C(=O)C/C(CCCC(=O)Nc2ccccc2[N+](=O)[O-])=N/NC(=O)c2cc3ccccc3cc2O)ccc1O`, the TGI is above 100 µM with SF-539 CNS; above 83.7 µM with SK-MEL-5 melanoma; above 100 µM in the assay on NCI-H522 lung; above 100 µM in the assay on OVCAR-4 ovarian; above 100 µM in the assay with HCT-116 colon; above 100 µM with U251 CNS. The TGI in the assay on CAKI-1 renal is above 100 µM.

With `N#Cc1c(N2CCCC2)[nH]c(=O)c(C(c2c(Cl)cccc2Cl)c2c(O)c(C#N)c(N3CCCC3)[nH]c2=O)c1O`, the GI50 was 5.57 µM in the assay with DU-145 prostate; 0.369 µM in the assay on SF-539 CNS; 0.409 µM with SK-MEL-5 melanoma; 9.74 µM with NCI-H522 lung; 17.5 µM in the assay with OVCAR-4 ovarian; 14.7 µM in the assay on HCT-116 colon. For the same molecule, the results for the GI50 in the assay with U251 CNS, in the assay with CAKI-1 renal and in the assay with NCI/ADR-RES ovarian were 13.4 µM, 10.7 µM and 15.4 µM, respectively. For the same molecule, the TGI was 18.4 µM in the assay with DU-145 prostate; 10.9 µM with SF-539 CNS; 13.5 µM in the assay with SK-MEL-5 melanoma; 35.1 µM in the assay with NCI-H522 lung; 33.7 µM in the assay on OVCAR-4 ovarian; 40 µM in the assay with HCT-116 colon. The TGI in the assay on U251 CNS was 95.1 µM; with CAKI-1 renal, 24 µM; in the assay with NCI/ADR-RES ovarian it was 33.8 µM.

Turning to `C[C@@H]1C[C@H]2CC[C@H](O2)[C@H](C)C(=O)O[C@@H](C)C[C@@H]2CC[C@@H](O2)[C@@H](C)C(=O)O[C@H](C)C[C@H]2CC[C@H](O2)[C@H](C)C(=O)O[C@@H](C)C[C@@H]2CC[C@@H](O2)[C@@H](C)C(=O)O1`, the TGI in the assay on DU-145 prostate was above 100 µM; in the assay on SF-539 CNS, above 100 µM; with SK-MEL-5 melanoma it was 0.401 µM; with NCI-H522 lung, 0.68 µM; in the assay on HCT-116 colon, above 100 µM; with U251 CNS, above 100 µM. Besides, the results for the TGI in the assay on CAKI-1 renal and with NCI/ADR-RES ovarian were 12.8 µM and 21 µM, respectively.

Turning to `O=C(CN1CCOCC1)Nc1nc(-c2ccc(Cl)cc2)cs1`, the TGI in the assay on SF-539 CNS, in the assay on OVCAR-4 ovarian, in the assay with U251 CNS and in the assay on CAKI-1 renal was above 100 µM each time.

Consider `COC(=O)C(=O)C1(CCC(C)=O)c2ccccc2-c2c(C)ccc(C)c21` (centres undefined), for which the TGI in the assay on SK-MEL-5 melanoma was 65.2 µM; in the assay with NCI-H522 lung, 94.1 µM; in the assay on OVCAR-4 ovarian, above 100 µM; in the assay on HCT-116 colon, above 100 µM; in the assay on U251 CNS it was above 100 µM; in the assay with CAKI-1 renal it was above 100 µM.
